Measurements taken from US8946327B2, “Method for producing synthetic amylospheroid” (Tao Health Life Pharma., Ltd., priority 2011, dated 2015).

System: primary cultured neurons derived from hippocampus of mature rat
Assay: Cytotoxicity test (Cell Death Detection ELISA, apoptosis)
Format: cell-based
Method: The formation of ASPD was confirmed by the following cytotoxicity test. A certain amount of ASPD was administered overnight to primary cultured neurons (more than 19 days after starting culture) derived from hippocampus of mature rat, and the neurotoxicity was measured in accordance with protocols using Cell Death Detection ELISA manufactured by Roche Diagnostics. This is an ELISA kit for quantitative detection of histone-complexed DNA fragmentation in the cells caused by apoptosis.

Compound | cytotoxicity (neurotoxicity) (solution containing the same concentration of DEHP and not containing synthetic ASPD, data not shown) | cytotoxicity (neurotoxicity) (solution containing synthetic ASPD before purification, 1, 2 and 4 μM in terms of Aβ42, administered overnight, compared with Comparative Example 1 (DEHP−), FIG. 2)
CCCCC(CC)COC(=O)c1ccccc1C(=O)OCC(CC)CCCC (centres unmarked) [DEHP, bis(2-ethylhexyl)phthalate] | No cytotoxicity | 
Example 1: synthetic ASPD (amylospheroid) formed from Aβ42 by agitation using 65 mM DEHP/DMSO solution |  | significant cytotoxicity in a concentration-dependent manner
